Measured values published in patent US20240425497A1, “Cbl-b Inhibitors and Methods of Use Thereof” (ARCUS BIOSCIENCES, INC., priority 2023, published 2024).

Columns and labels:
Cbl-b = Cbl-b (Homo sapiens (Human), UniProt Q13191); test: Cbl-b probe displacement HTRF binding assay; settings: 0.4 nM biotinylated Cbl-b, 150 nM BODIPY probe
Method: The affinity with which compounds of the present disclosure bind to Cbl-b was assessed using probe displacement homologous time resolved fluorescence (HTRF) assays. The assays used a BODIPY™ conjugated probe (Example 54 from WO 2020264398) and biotinylated Cbl-b. The assays were performed in assay buffer consisting of 20 mM Hepes, 150 mM NaCl, 0.01% Triton X-100, 0.5 mM TCEP, 0.01% BSA. On the day of the assay, a 20 point, 1:2 master serial dilution of each compound was prepared in DMSO to span a final concentration range of 10 μM to 0 nM. Two hundred nanoliters of diluted compound was added to each well of a 384-well plate. Fifteen microliters of biotinylated-Cbl-b resuspended in assay buffer were added to each well and the plate incubated for 60 minutes at room temperature prior to addition of 5 μL of BODIPY™ probe in assay buffer. Final assay conditions included 0.4 nM of Cbl-b and 150 nM of BODIPY™ probe. After a further 15 minutes of incubation at room temperature, 5 μl of Streptavidin-Terbium cryptate reagent at 5-fold final concentration was added to each well of the 384-well plate. Binding of a probe to Cbl-b results in an increase of HTRF signal. HTRF signal was measured by Envision plate reader, while competition of a compound of the present disclosure with probe results in a decrease of signal. Percentage maximum activity in each test well was calculated based on DMSO (maximum activity, 0% displacement) and no protein control wells (baseline activity, 100% displacement). Binding affinity was determined from a dose response curve fitted using a standard four parameter fit equation. See Table 3 for data for compounds (Cbl-b Binding (IC50)).

Jurkat cells = test: IL-2 secretion assay in CD3/CD28-activated Jurkat cells (AlphaLISA); assay type: cell-based, human; settings: Homo sapiens, CD3/CD28 activation, 24 h
Method: Certain compounds were also evaluated in an IL-2 secretion assay. On the day of the assay, a 16 point, 1:2 master serial dilution of each compound was prepared in Opti-MEM to span a final concentration range of […]. Assays were set up in CORNING® tissue culture-treated 384-well microplates containing 60 nL of each dilution. Jurkat cells grown in RPMI-1640 supplemented with 10% FBS, 1% Glutamax, and 1% Pen/Strep were collected, resuspended in Opti-MEM. 50,000 cells/well and added to the compound plates. After a short spin (1200 rpm for 1 min), the plates were incubated at 37° C. for 1 hour. The cells were activated by adding 15 μL of IMMUNOCULT™ Human CD3/CD28 T Cell Activator (STEMCELL Technologies) diluted in Opti-MEM. After 24 h of incubation at 37° C., aliquots of culture supernatants were transferred to OptiPlate-384 (PerkinElmer) microplates. The level of JIL-2 secretion in the supernatants was then determined using the IL-2 (human) AiphaLISA Detection Kit (PerkinElmer) according to the manufacturer's recommendations. The AiphaLISA signal was measured using an EnVision plate reader (PerkinElmer). EC50 values were determined by fitting the data to a standard 4-parameter logistic equation. See Table 3 for data for select compounds (IL-2 Secretion (EC50)).

Cbl-b, sequence (Q13191 whole entry, species assumed): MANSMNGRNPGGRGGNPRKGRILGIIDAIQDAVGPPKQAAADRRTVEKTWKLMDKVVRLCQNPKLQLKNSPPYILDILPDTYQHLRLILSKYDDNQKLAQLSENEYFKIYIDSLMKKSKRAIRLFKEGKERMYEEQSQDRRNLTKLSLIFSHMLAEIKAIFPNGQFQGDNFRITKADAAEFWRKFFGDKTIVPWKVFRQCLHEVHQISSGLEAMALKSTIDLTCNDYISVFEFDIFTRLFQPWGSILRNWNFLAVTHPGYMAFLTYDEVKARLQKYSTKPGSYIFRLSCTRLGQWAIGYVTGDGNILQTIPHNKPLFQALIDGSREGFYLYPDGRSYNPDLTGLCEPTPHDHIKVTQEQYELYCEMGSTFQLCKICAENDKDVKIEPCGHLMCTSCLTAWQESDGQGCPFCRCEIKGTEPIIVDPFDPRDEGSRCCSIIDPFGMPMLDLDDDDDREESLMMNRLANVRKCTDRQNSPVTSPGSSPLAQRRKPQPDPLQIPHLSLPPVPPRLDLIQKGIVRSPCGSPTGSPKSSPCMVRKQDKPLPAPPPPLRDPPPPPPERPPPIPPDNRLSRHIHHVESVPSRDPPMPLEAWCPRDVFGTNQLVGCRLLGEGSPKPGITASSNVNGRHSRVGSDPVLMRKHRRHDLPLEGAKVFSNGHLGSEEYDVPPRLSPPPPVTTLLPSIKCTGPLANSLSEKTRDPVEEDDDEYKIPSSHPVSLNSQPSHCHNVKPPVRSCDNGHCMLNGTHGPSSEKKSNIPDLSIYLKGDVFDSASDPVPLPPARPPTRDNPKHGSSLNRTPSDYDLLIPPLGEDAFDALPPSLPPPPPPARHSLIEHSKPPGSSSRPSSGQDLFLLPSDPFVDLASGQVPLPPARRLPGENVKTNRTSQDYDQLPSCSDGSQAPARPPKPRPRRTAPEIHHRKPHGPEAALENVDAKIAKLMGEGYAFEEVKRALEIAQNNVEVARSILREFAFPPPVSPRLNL

SMILES | IC50 (Cbl-b) | EC50 (Jurkat cells)
O=C(c1cc(F)ccc1-c1cc(C2CC2)nc(-n2cnc3cc(C4CCNC4)[nH]c3c2=O)c1)N1CC(F)C1 (stereo not shown) [Example 32, 3-[6-cyclopropyl-4-[4-fluoro-2-(3-fluoroazetidine-1-carbonyl)phenyl]pyridin-2-yl]-6-pyrrolidin-3-yl-5H-pyrrolo[3,2-d]pyrimidin-4-one] | < 100 nM | 1000 to 5000 nM
O=C(c1cc(F)ccc1-c1cc(C2CC2)nc(-n2cnc3cc(C4CC4)[nH]c3c2=O)c1)N1CC(F)C1 [Example 33, 6-cyclopropyl-3-[6-cyclopropyl-4-[4-fluoro-2-(3-fluoroazetidine-1-carbonyl)phenyl]pyridin-2-yl]-5H-pyrrolo[3,2-d]pyrimidin-4-one] | 100 to 1000 nM | 100 to 1000 nM
COC[C@H](C)NCc1cc2ncn(-c3cc(-c4ccc(F)cc4C(=O)N4CC(F)(F)C4)cc(C4CC4)n3)c(=O)c2[nH]1 [Example 34, 3-[6-cyclopropyl-4-[2-(3,3-difluoroazetidine-1-carbonyl)-4-fluorophenyl]pyridin-2-yl]-6-[[[(2S)-1-methoxypropan-2-yl]amino]methyl]-5H-pyrrolo[3,2-d]pyrimidin-4-one] | < 100 nM | < 100 nM
COCCNCc1cc2ncn(-c3cc(-c4ccc(F)cc4C(=O)N4CC(F)C4)cc(C4CC4)n3)c(=O)c2[nH]1 [Example 35, 3-[6-cyclopropyl-4-[4-fluoro-2-(3-fluoroazetidine-1-carbonyl)phenyl]pyridin-2-yl]-6-[(2-methoxyethylamino)methyl]-5H-pyrrolo[3,2-d]pyrimidin-4-one] | < 100 nM | < 100 nM
CC1(NCc2cc3ncn(-c4cc(-c5ccc(F)cc5C(=O)N5CC(F)C5)cc(C5CC5)n4)c(=O)c3[nH]2)CCC1 [Example 36, 3-[6-cyclopropyl-4-[4-fluoro-2-(3-fluoroazetidine-1-carbonyl)phenyl]pyridin-2-yl]-6-[[(1-methylcyclobutyl)amino]methyl]-5H-pyrrolo[3,2-d]pyrimidin-4-one] | < 100 nM | < 100 nM
O=C(c1cc(F)ccc1-c1cc(C2CC2)nc(-n2cnc3cc(CN4CC5CCC4C5)[nH]c3c2=O)c1)N1CC(F)C1 (stereo not shown) [Example 37, 6-(2-azabicyclo[2.2.1]heptan-2-ylmethyl)-3-[6-cyclopropyl-4-[4-fluoro-2-(3-fluoroazetidine-1-carbonyl)phenyl]pyridin-2-yl]-5H-pyrrolo[3,2-d]pyrimidin-4-one] | < 100 nM | 100 to 1000 nM
COCCN(C)Cc1cc2ncn(-c3cc(-c4ccc(F)cc4C(=O)N4CC(F)(F)C4)cc(C4CC4)n3)c(=O)c2[nH]1 [Example 38, 3-[6-cyclopropyl-4-[2-(3,3-difluoroazetidine-1-carbonyl)-4-fluorophenyl]pyridin-2-yl]-6-[[2-methoxyethyl(methyl)amino]methyl]-5H-pyrrolo[3,2-d]pyrimidin-4-one] | < 100 nM | 100 to 1000 nM
O=C(c1cc(F)ccc1-c1cc(C2CC2)nc(-n2cnc3cc(CNCCC(F)(F)F)[nH]c3c2=O)c1)N1CC(F)(F)C1 [Example 39, 3-[6-cyclopropyl-4-[2-(3,3-difluoroazetidine-1-carbonyl)-4-fluorophenyl]pyridin-2-yl]-6-[(3,3,3-trifluoropropylamino)methyl]-5H-pyrrolo[3,2-d]pyrimidin-4-one] | < 100 nM | < 100 nM
COCCNCc1cc2ncn(-c3cc(-c4ccc(F)cc4C(=O)N4CC(F)(F)C4)cc(C4CC4)c3)c(=O)c2[nH]1 [Example 41, 6-{5-cyclopropyl-2′-[(3,3-difluoro-1-azetidinyl)carbonyl]-4′-fluoro-3-biphenylyl}-2-[(2-methoxyethylamino)methyl]-1,6-dihydro-1,4,6-triaza-7-indenone] | < 100 nM | 100 to 1000 nM
COC1CN(Cc2cc3ncn(-c4cc(-c5ccc(F)cc5C(=O)N5CC(F)(F)C5)cc(C5CC5)n4)c(=O)c3[nH]2)C1 [Example 43, 6-(6-cyclopropyl-4-{2-[(3,3-difluoro-1-azetidinyl)carbonyl]-4-fluorophenyl}-2-pyridyl)-2-[(3-methoxy-1-azetidinyl)methyl]-1,6-dihydro-1,4,6-triaza-7-indenone] | < 100 nM | 100 to 1000 nM
COCCNCc1cc2ncn(-c3cc(-c4ccc(F)cc4C(=O)N4CC(F)(F)C4)cc(C4CC4)n3)c(=O)c2[nH]1 [Example 44, 6-(6-cyclopropyl-4-{2-[(3,3-difluoro-1-azetidinyl)carbonyl]-4-fluorophenyl}-2-pyridyl)-2-[(2-methoxyethylamino)methyl]-1,6-dihydro-1,4,6-triaza-7-indenone] | < 100 nM | < 100 nM
C[C@H]1CCCN(Cc2cc3c(C#N)cn(-c4cc(-c5c(C(=O)N6CC(F)C6)cnn5C)cc(C5CC5)n4)c(=O)c3[nH]2)C1 [Example 45, 2-{[(S)-3-methyl-1-piperidyl]methyl}-6-(6-cyclopropyl-4-{4-[(3-fluoro-1-azetidinyl)carbonyl]-1-methyl-5-pyrazolyl}-2-pyridyl)-7-oxo-1,6-dihydro-1,6-diaza-4-indenecarbonitrile] | < 100 nM | 100 to 1000 nM
C[C@H]1CCCN(Cc2[nH]c3c(=O)n(-c4cc(-c5ccc(F)cc5C(=O)N5CC(F)C5)cc(C5CC5)n4)cc(C#N)c3c2Cl)C1 [Example 46, 2-{[(S)-3-methyl-1-piperidyl]methyl}-3-chloro-6-(6-cyclopropyl-4-{4-fluoro-2-[(3-fluoro-1-azetidinyl)carbonyl]phenyl}-2-pyridyl)-7-oxo-1,6-dihydro-1,6-diaza-4-indenecarbonitrile] | < 100 nM | < 100 nM
CC(c1cc2ncn(-c3cc(-c4ccc(F)cc4C(=O)N4CC(F)C4)cc(C4CC4)n3)c(=O)c2[nH]1)N1CCO[C@H](C)C1 (stereo partly drawn) [Example 47, 2-{1-[(R)-2-methyl-4-morpholinyl]ethyl}-6-(6-cyclopropyl-4-{4-fluoro-2-[(3-fluoro-1-azetidinyl)carbonyl]phenyl}-2-pyridyl)-1,6-dihydro-1,4,6-triaza-7-indenone] | < 100 nM | 100 to 1000 nM
C[C@H]1CCCN(Cc2nc3c(C(F)(F)F)cn(-c4cc(-c5ccc(F)cc5C(=O)N5CC(F)C5)cc(C5CC5)n4)c(=O)c3[nH]2)C1 [Example 48, 5-[6-cyclopropyl-4-[4-fluoro-2-(3-fluoroazetidine-1-carbonyl)phenyl]pyridin-2-yl]-2-[[(3S)-3-methylpiperidin-1-yl]methyl]-7-(trifluoromethyl)-3H-imidazo[4,5-c]pyridin-4-one] | < 100 nM | < 100 nM
Cc1cn(-c2cc(-c3ccc(F)cc3C(=O)N3CC(F)C3)cc(C3CC3)n2)c(=O)c2[nH]c([C@H]3CCCN3)nc12 [Example 49, 5-[6-cyclopropyl-4-[4-fluoro-2-(3-fluoroazetidine-1-carbonyl)phenyl]pyridin-2-yl]-7-methyl-2-[(2R)-pyrrolidin-2-yl]-3H-imidazo[4,5-c]pyridin-4-one] | < 100 nM | > 5000 nM
Cc1cn(-c2cc(-c3ccc(F)cc3C(=O)N3CC(F)C3)cc(C3CC3)n2)c(=O)c2[nH]c([C@@H]3CCCN3)nc12 [Example 50, 5-[6-cyclopropyl-4-[4-fluoro-2-(3-fluoroazetidine-1-carbonyl)phenyl]pyridin-2-yl]-7-methyl-2-[(2S)-pyrrolidin-2-yl]-3H-imidazo[4,5-c]pyridin-4-one] | 100 to 1000 nM | > 5000 nM
